In brackets after ≈: the same amount, converted by molar mass.
Tests used:
Candida albicans [1] = assay: Fungicidal activity against Candida albicans MTCC 227 after 3 days; assay type: functional; conditions: MTCC 227, 72 h
Aspergillus niger [2] = assay: Fungicidal activity against Aspergillus niger MTCC 282 after 3 days; assay type: functional; conditions: MTCC 282, 72 h
Escherichia coli [3] = assay: Bactericidal against Escherichia coli MTCC 443 after 3 days; assay type: functional; conditions: MTCC 443, 72 h
Klebsiella pneumoniae [4] = assay: Bactericidal activity against Klebsiella pneumoniae MTCC 432 after 3 days; assay type: functional; conditions: MTCC 432, 72 h
Staphylococcus aureus [5] = assay: Bactericidal activity against Staphylococcus aureus MTCC 096 after 3 days; assay type: functional; conditions: MTCC 096, 72 h
Candida albicans [6] = assay type: functional, MTCC 227
Candida albicans [7] = assay: Antifungal activity against Candida albicans MTCC 227 after 28 to 30 hr by serial dilution method; assay type: functional
Aspergillus flavus [8] = assay: Antifungal activity against Aspergillus flavus MTCC 277 at […] to […] ug/ml after 28 to 30 hr by cup-plate method; assay type: functional
Aspergillus niger [9] = assay: Antifungal activity against Aspergillus niger MTCC 282 at […] to […] ug/ml after 28 to 30 hr by cup-plate method; assay type: functional
Klebsiella pneumoniae [10] = assay type: functional, MTCC 432
Aspergillus niger [11] = assay: Antifungal activity against Aspergillus niger MTCC 282 after 28 to 30 hr by serial dilution method; assay type: functional
Klebsiella pneumoniae [12] = assay: Antibacterial activity against Klebsiella pneumoniae MTCC 432 after 16 to 18 hr by serial dilution method; assay type: functional
Salmonella typhi [13] = assay: Antibacterial activity against Salmonella enterica subsp. enterica serovar Typhi MTCC 733 at […] to […] ug/ml after 16 to 18 hr by cup-plate method; assay type: functional
Salmonella typhi [14] = assay: Antibacterial activity against Salmonella enterica subsp. enterica serovar Typhi MTCC 733 after 16 to 18 hr by serial dilution method; assay type: functional
Pseudomonas aeruginosa [15] = assay type: functional, MTCC 424
Pseudomonas aeruginosa [16] = assay: Antibacterial activity against Pseudomonas aeruginosa MTCC 424 after 16 to 18 hr by serial dilution method; assay type: functional
Escherichia coli [17] = assay: Antibacterial activity against Escherichia coli MTCC 443 after 16 to 18 hr by serial dilution method; assay type: functional
Escherichia coli [18] = assay type: functional, MTCC 443
Aspergillus flavus [19] = assay: Antifungal activity against Aspergillus flavus MTCC 277 after 28 to 30 hr by serial dilution method; assay type: functional
Aspergillus fumigatus [20] = assay: Antifungal activity against Aspergillus fumigatus MTCC 343 at […] to […] ug/ml after 28 to 30 hr by cup-plate method; assay type: functional
Aspergillus fumigatus [21] = assay: Antifungal activity against Aspergillus fumigatus MTCC 343 after 28 to 30 hr by serial dilution method; assay type: functional
[22] = test system: Staphylococcus epidermidis; assay type: functional, MTCC 435
[23] = test system: Staphylococcus epidermidis; assay: Antibacterial activity against Staphylococcus epidermidis MTCC 435 after 16 to 18 hr by serial dilution method; assay type: functional
Bacillus subtilis [24] = assay: Antibacterial activity against Bacillus subtilis MTCC 441 after 16 to 18 hr by serial dilution method; assay type: functional
Bacillus subtilis [25] = assay type: functional, MTCC 441
Staphylococcus aureus [26] = assay type: functional, MTCC 096
Staphylococcus aureus [27] = assay: Antibacterial activity against Staphylococcus aureus MTCC 096 after 16 to 18 hr by serial dilution method; assay type: functional

Row | Structure (SMILES) | MFC (Candida albicans [1]) [µg/mL] | MFC (Aspergillus niger [2]) [µg/mL] | MBC (Escherichia coli [3]) [µg/mL] | MBC (Klebsiella pneumoniae [4]) [µg/mL] | MBC (Staphylococcus aureus [5]) [µg/mL] | inhibition zone (IZ) (Candida albicans [6]) [mm] | MIC (Candida albicans [7]) [µg/mL] | inhibition zone (IZ) (Aspergillus flavus [8]) [mm] | inhibition zone (IZ) (Aspergillus niger [9]) [mm] | inhibition zone (IZ) (Klebsiella pneumoniae [10]) [mm] | MIC (Aspergillus niger [11]) [µg/mL] | MIC (Klebsiella pneumoniae [12]) [µg/mL] | inhibition zone (IZ) (Salmonella typhi [13]) [mm] | MIC (Salmonella typhi [14]) [µg/mL] | inhibition zone (IZ) (Pseudomonas aeruginosa [15]) [mm] | MIC (Pseudomonas aeruginosa [16]) [µg/mL] | MIC (Escherichia coli [17]) [µg/mL] | inhibition zone (IZ) (Escherichia coli [18]) [mm] | MIC (Aspergillus flavus [19]) [µg/mL] | inhibition zone (IZ) (Aspergillus fumigatus [20]) [mm] | also measured
1 | O=c1cc(OCc2nnc(-c3ccc(F)cc3)[nH]2)c2ccccc2o1 | 12.5 (≈ 37.1 µM) | 25 (≈ 74.1 µM) | 25 (≈ 74.1 µM) | 25 (≈ 74.1 µM) | 12.5 (≈ 37.1 µM) | 14 | 6.25 (≈ 18.5 µM) | 11 | 13 | 13 | 12.5 (≈ 37.1 µM) | 6.25 (≈ 18.5 µM) | 11 | 12.5 (≈ 37.1 µM) | <10 | 25 (≈ 74.1 µM) | 12.5 (≈ 37.1 µM) | 11 | 12.5 (≈ 37.1 µM) | 12 | MIC (Aspergillus fumigatus [21]): 12.5 µg/mL (≈ 37.1 µM); inhibition zone (IZ) [22]: <10 mm; MIC [23]: 50 µg/mL (≈ 148 µM); MIC (Bacillus subtilis [24]): 50 µg/mL (≈ 148 µM); inhibition zone (IZ) (Bacillus subtilis [25]): <10 mm; inhibition zone (IZ) (Staphylococcus aureus [26]): 13 mm; MIC (Staphylococcus aureus [27]): 6.25 µg/mL (≈ 18.5 µM)
2 | COc1ccc(-c2nnc(COc3cc(=O)oc4ccccc34)[nH]2)cc1OC | 25 (≈ 65.9 µM) | 25 (≈ 65.9 µM) | 25 (≈ 65.9 µM) | 25 (≈ 65.9 µM) | 12.5 (≈ 32.9 µM) | 15 | 6.25 (≈ 16.5 µM) | <10 | 13 | 11 | 6.25 (≈ 16.5 µM) | 12.5 (≈ 32.9 µM) | 13 | 6.25 (≈ 16.5 µM) | <10 | 25 (≈ 65.9 µM) | 25 (≈ 65.9 µM) | <10 | 25 (≈ 65.9 µM) | <10 | MIC (Aspergillus fumigatus [21]): 25 µg/mL (≈ 65.9 µM); inhibition zone (IZ) [22]: <10 mm; MIC [23]: 25 µg/mL (≈ 65.9 µM); MIC (Bacillus subtilis [24]): 25 µg/mL (≈ 65.9 µM); inhibition zone (IZ) (Bacillus subtilis [25]): <10 mm; inhibition zone (IZ) (Staphylococcus aureus [26]): 14 mm; MIC (Staphylococcus aureus [27]): 6.25 µg/mL (≈ 16.5 µM)

Reference: ChEMBL document CHEMBL3045586, “Synthesis and antimicrobial activity of some new 4-triazolylmethoxy-2H-chromen-2-one derivatives” (2012)
